The numbers were not newly measured in patent publication US20200354441A1, “TREATMENT OF DISORDERS” (Apellis Pharmaceuticals, Inc., priority 2017, published 2020), which cites them from elsewhere.

The subject of series [1] is complement activation (alternative pathway). Conditions: alternative pathway-mediated erythrocyte lysis assay (WO2004/026328).
The next series relates to complement activation. Conditions: relative to compstatin amidated at the C-terminus; published data (WO2004/026328, WO2007044668, Mallik 2005, Katragadda 2006).

In the case of `CC[C@H](C)[C@H](N)C(=O)N[C@H]1CSSC[C@@H](C(=O)N[C@H](C(N)=O)[C@@H](C)O)NC(=O)[C@H](CCCN=C(N)N)NC(=O)[C@H](Cc2cnc[nH]2)NC(=O)[C@H](Cc2cnc[nH]2)NC(=O)CNC(=O)[C@H](Cc2c[nH]c3ccccc23)NC(=O)[C@H](CC(=O)O)NC(=O)[C@H](CCC(N)=O)NC(=O)[C@H](C(C)C)NC(=O)[C@H](C(C)C)NC1=O` [Compstatin, H-ICVVQDWGHHRCT-CONH2], the concentration for half-maximal inhibition (IC50) in series [1] was 12 µM.
For Ac-ICVVQDWGHHRCT-CONH2 [Ac-compstatin], the Activity over compstatin in the series with complement activation is 3× more.
With “H-GICV(6fW)QD(6fW)GAHRCTN-COOH (6-fluoro-Trp, C-terminal acid) [+G/V4(6fW)/W7(6fW)H9A+N-OH]”, the Activity over compstatin in the series with complement activation was 126× more.
In the case of “Ac-ICVWQDWGAHRCdT-COOH [Ac-V4W/H9A/T13dT -OH]”, the Activity over compstatin in the series with complement activation is listed as 55× more.
Take “Ac-ICVWQD(5fW)GAHRCT-CONH2 [Ac-V4W/W7(5fW)/H9A]”: the Activity over compstatin in the series with complement activation is 121× more.
